According to US20240376118A1, “BI-FUNCTIONAL COMPOUNDS AND METHODS FOR TARGETED UBIQUITINATION OF ANDROGEN RECEPTOR” (MONTELINO THERAPEUTICS, INC., priority 2021, published 2024):

system: 22Rv1-Enz^R human prostate cancer cell line; assay: 22Rv1-Enz^R cell proliferation assay; format: cell-based; conditions: 22Rv1-Enz^R cells, 6-day culture, cell media changed every 24 hours, read-out: 22Rv1-Enz^R proliferation assay GIC50 (half maximal growth inhibition constant)
Description: The human prostate cancer cell line, 22Rv1 has been reported to express a high level of AR-V7. According to one procedure, 22Rv1 is seeded at 50,000 cells/well on a 24-well plate in quadruplicate and treated with test compounds in concentrations ranging up to 20 μM for four days. Standard culture media is RPMI-1640 supplemented with 10% fetal bovine serum. The test compound initially is dissolved in DMSO at 50 mM. This stock solution is then diluted as needed for the indicated concentrations. At the end of the four-day period, cells are harvested using 1% trypsin and counted using an automated cell counter.
Cell Culture. Human CaP cell lines, LNCaP, 22Rv1, VCaP, PC3, and DU145 are obtained from the American Type Culture Collection (ATCC) and maintained in the standard culture media: RPMI-1640 supplemented with 10% fetal bovine serum (FBS). LNCaP, 22Rv1, and VCaP are androgen-responsive cell lines, while PC3 and DU145 are not. To establish SAT resistant CaP cell lines, LNCaP, 22Rv1, and VCaP are treated continuously with 10-50 μM abiraterone, apalutamide, darolutamide, or enzalutamide. After 3-6 months, stable cell lines are established and designated as LNCaP-Abi^R, LNCaP-Apa^R, LNCaP-Daro^R, LNCaP-Enz^R, VCaP-Abi^R, VCaP-Apa^R, VCaP-Daro^R, VCaP-Enz^R, 22Rv1-Abi^R, 22Rv1-Apa^R, 22Rv1-Daro^R and 22Rv1-Enz^R. Unless otherwise specified, the standard culture media for these SAT-resistant cell lines included 10 μM of their respective SAT. For the proteasome inhibitor study, the inhibitors MG132 and Epoxomicin are used. The E3 ligase inhibitors Heclin, Nutlin 3a, Thalidomide, and VH298 are used. Cell lines obtained from ATCC are confirmed by checking their morphology using optical microscopy, establishing baselines for cell proliferation, verifying species of origin using isoenzymology, and characterizing the cell's DNA fingerprint using short tandem repeat (STR) profiling. Mycoplasma contamination is also assessed using a PCR based detection system.
Selected compounds may be tested in the human prostate cancer cell line, 22Rv1-Enz^R, as described in Geun Taek Lee et al., Molecular Cancer Therapeutics, 20:490-9 (2021). These procedures are similar to that described in Experimental Example 1, above, except that the assay conditions are a 6-day culture with cell media changed every 24 hours.

Row | Compound | IC50 [µM]
1 | O=C1CCC(N2C(=O)c3cc(F)c(NCCCCOCCOCCOCCOc4c(-c5csc(N6CCOCC6)n5)ccc(F)c4F)cc3C2=O)C(=O)N1 (stereo not drawn) [Example 32, 5-((4-(2-(2-(2-(2,3-difluoro-6-(2-morpholinothiazol-4-yl)phenoxy)ethoxy)ethoxy)ethoxy)butyl)amino)-2-(2,6-dioxopiperidin-3-yl)-6-fluoroisoindoline-1,3-dione] | < 10
2 | O=C(COc1c(-c2csc(N3CCOCC3)n2)ccc(F)c1F)NCCCCCCCCCCNc1cc2c(cc1F)C(=O)N(C1CCC(=O)NC1=O)C2=O (stereo not drawn) [Example 25, 2-(2,3-difluoro-6-(2-morpholinothiazol-4-yl)phenoxy)-N-(10-((2-(2,6-dioxopiperidin-3-yl)-6-fluoro-1,3-dioxoisoindolin-5-yl)amino)decyl)acetamide] | < 10
3 | O=C1CCC(N2C(=O)c3cc(F)c(N4CCN(CC5CCN(C(=O)COc6c(-c7csc(N8CCOCC8)n7)ccc(F)c6F)CC5)CC4)cc3C2=O)C(=O)N1 (stereo not drawn) [Example 20, 5-(4-((1-(2-(2,3-difluoro-6-(2-morpholinothiazol-4-yl)phenoxy)acetyl)piperidin-4-yl)methyl)piperazin-1-yl)-2-(2,6-dioxopiperidin-3-yl)-6-fluoroisoindoline-1,3-dione] | < 10

The next lines start with the values.

Row | IC50 [µM] | Compound
4 | < 10 | O=C(COc1c(-c2csc(N3CCOCC3)n2)ccc(F)c1F)NCCCCCCC(=O)N1CCN(c2cc3c(cc2F)C(=O)N(C2CCC(=O)NC2=O)C3=O)CC1 (stereo not drawn) [Example 2, 2-(2,3-difluoro-6-(2-morpholinothiazol-4-yl)phenoxy)-N-(7-(4-(2-(2,6-dioxopiperidin-3-yl)-6-fluoro-1,3-dioxoisoindolin-5-yl)piperazin-1-yl)-7-oxoheptyl)acetamide]
5 | < 10 | O=C(COc1c(-c2csc(N3CCOCC3)n2)ccc(F)c1F)NCCCCCCCCCCC(=O)N1CCN(c2cc3c(cc2F)C(=O)N(C2CCC(=O)NC2=O)C3=O)CC1 (stereo not drawn) [Example 3, 2-(2,3-difluoro-6-(2-morpholinothiazol-4-yl)phenoxy)-N-(11-(4-(2-(2,6-dioxopiperidin-3-yl)-6-fluoro-1,3-dioxoisoindolin-5-yl)piperazin-1-yl)-11-oxoundecyl)acetamide]
6 | < 10 | O=C(COc1c(-c2csc(N3CCOCC3)n2)ccc(F)c1F)NCCCCC(=O)N1CCN(c2cc3c(cc2F)C(=O)N(C2CCC(=O)NC2=O)C3=O)CC1 (stereo not drawn) [Example 1, 2-(2,3-difluoro-6-(2-morpholinothiazol-4-yl)phenoxy)-N-(5-(4-(2-(2,6-dioxopiperidin-3-yl)-6-fluoro-1,3-dioxoisoindolin-5-yl)piperazin-1-yl)-5-oxopentyl)acetamide]
